Where only a bound is given, the exact number is not on record here.

What all share (assay type): functional
Experiment [1] relates to A549. Put plainly: Growth inhibition of human A549 cells by Sulforhodamine B assay. The settings on record: for CC50: read-out: LC50 (the source's name).
The subject of experiment [2] is SK-N-SH. Briefly: Growth inhibition of human SK-N-SH cells by Sulforhodamine B assay.
Experiment [3] deals with MCF7. Put plainly: Growth inhibition of human MCF7 cells by Sulforhodamine B assay.
In experiment [4] the test system is HeLa. Briefly: Growth inhibition of human HeLa cells by Sulforhodamine B assay.

As to `CC1(C)CCC[C@]2(C)[C@@H](/C=C/C3=CCOC3=O)C(C=O)=CC(=O)[C@@H]12`, in experiment [1], it took 18.5 µM to inhibit growth by half (GI50) and the CC50 came to 45.9 µM. Moreover, in experiment [2], the GI50 was 38.7 µM and the LC50 was 48.5 µM. For the same compound, in experiment [3], it took 69.9 µM to inhibit growth by half (GI50) and the LC50 (concentration killing 50% of cells) is more than 100 µM. Also, in experiment [4], the GI50 worked out at 76.9 µM and the median lethal concentration (LC50) was more than 100 µM.

Consider `C=C1CC[C@H]2C(C)(C)CCC[C@]2(C)[C@H]1C/C=C1/CC(OC)OC1=O` (some centres not stated) [CORONARIN D METHYL ETHER], for which the GI50 in experiment [1] is 30 µM; in experiment [2], 13.6 µM; in experiment [3], 25.3 µM; in experiment [4] it was more than 100 µM. Also, the CC50 in experiment [1] worked out at 71.3 µM. The figures for the 50% lethal concentration (LC50) in experiment [2] and in experiment [4] were 19.1 µM and more than 100 µM, respectively. The compound further gave an LC50 (concentration killing 50% of cells) in experiment [3] of 31.6 µM.

Take `C=C1C(C/C=C2\COC(=O)C2)[C@@]2(C)CCCC(C)(C)[C@@H]2C[C@@H]1O` (some centres not stated) [PACOVATININ A]: in experiment [1], halving of growth (GI50) required 15.1 µM and the CC50 worked out at 36.2 µM. Also, in experiment [2], the GI50 came to 54.8 µM and the LC50 stood at 59.9 µM. Further, in experiment [3], growth was halved (GI50) at 44.7 µM and the LC50 (concentration killing 50% of cells) was determined as 55.6 µM. In experiment [4], this compound registered a GI50 of 62.1 µM and an LC50 of 80.7 µM.

As to `CC1=CC(=O)[C@H]2C(C)(C)CCC[C@]2(C)[C@H]1/C=C/c1ccoc1` [HEDYCHENONE], in experiment [1], it took 7.4 µM to inhibit growth by half (GI50) and the CC50 is 14 µM. In experiment [2], this compound had a GI50 of 11.6 µM and an LC50 of 17.2 µM. In experiment [3], this compound yielded a GI50 of 14.9 µM and an LC50 (concentration killing 50% of cells) of 19.8 µM. Further, in experiment [4], the GI50 was 63.2 µM and the 50% lethal concentration (LC50) is 81.5 µM.

Regarding `COC(=O)Nc1nc2cc(C(=O)c3cccs3)ccc2[nH]1` [NOCODAZOLE], the concentration for 50% growth inhibition (GI50) is less than 0.1 µM in experiment [1], 0.66 µM in experiment [2], less than 0.1 µM in experiment [3] and 0.75 µM in experiment [4]. Besides, the CC50 in experiment [1] is less than 0.1 µM.

With `CC1=CC(=O)[C@H]2C(C)(C)CCC[C@]2(C)C1/C=C/C1=CC(O)OC1=O` (some centres not stated), in experiment [1], halving of growth (GI50) required 10.6 µM and the CC50 amounted to 21.2 µM. In experiment [2], this compound yielded a GI50 of 17.5 µM and an LC50 of 22.8 µM. For the same compound, in experiment [3], it took 28.5 µM to inhibit growth by half (GI50) and the LC50 (concentration killing 50% of cells) is 34.8 µM. In experiment [4], this compound displayed a GI50 of more than 100 µM and a 50% lethal concentration (LC50) of more than 100 µM.

`CC(C)(O)C1CC[C@@]2(C)CCC[C@@](C)(O)[C@@H]2C1` (some centres not stated) [CRYPTOMERIDIOL]: the GI50 in experiment [1] was 14.5 µM; in experiment [2], 73.6 µM; in experiment [3], 62.3 µM; in experiment [4] it was 75.6 µM. In experiment [1], the CC50 was determined as 27.4 µM.

As to `C=C1CC[C@H]2C(C)(C)CCC[C@]2(C)[C@H]1CCC1=CC(O)OC1=O` (some centres not stated) [CORONARIN C], the GI50 in experiment [1] was 4.8 µM; in experiment [2], 25.8 µM; in experiment [3], 32.6 µM; in experiment [4] it was 36.3 µM. In experiment [1], the CC50 stood at 9.5 µM. Further, the median lethal concentration (LC50) in experiment [2] came out at 33.7 µM; in experiment [4], 45.9 µM. Further, in experiment [3], the LC50 (concentration killing 50% of cells) stood at 40.7 µM.

Take `COc1cc(/C=C/C=O)ccc1O` [CONIFERYL ALDEHYDE]: the GI50 in experiment [1] came to 1.7 µM; in experiment [2] it was 10.6 µM; in experiment [3], 39.5 µM; in experiment [4], 61.8 µM. For the same compound, in experiment [1], the CC50 is 11.4 µM.

With `CCOC(=O)/C=C/c1ccc(O)c(OC)c1` [ETHYL FERULATE], the GI50 in experiment [1] turned out to be 1.2 µM; in experiment [2], 22.3 µM; in experiment [3], 86.3 µM; in experiment [4] it was 52.8 µM. Further, the CC50 in experiment [1] was 5.8 µM.

In the case of `C=C1CC[C@H]2C(C)(C)CCC[C@]2(C)[C@H]1C/C=C1/CC(O)OC1=O` (some centres not stated) [CORONARIN D], the GI50 in experiment [1] stood at 8 µM; in experiment [2], 20.1 µM; in experiment [3], 17.4 µM; in experiment [4] it was 47 µM. The CC50 in experiment [1] was 14 µM. For the same compound, the LC50 in experiment [2] came to 32 µM; in experiment [4], 60.6 µM. This compound also registered an LC50 (concentration killing 50% of cells) in experiment [3] of 21.9 µM.

In the case of `CC1(C)CCC[C@]2(C)[C@@H](/C=C/C3=CC(=O)OC3)C(CO)=C(O)C(=O)[C@@H]12`, the GI50 in experiment [1] came out at 26 µM; in experiment [2] it was 12.1 µM; in experiment [3], 12 µM; in experiment [4], 79.7 µM. Moreover, in experiment [1], the CC50 turned out to be 48.7 µM. Further, the LC50 in experiment [2] was 19.3 µM; in experiment [4] it was more than 100 µM. This compound yielded an LC50 (concentration killing 50% of cells) in experiment [3] of 15.4 µM.

`CC1=CC(=O)[C@H]2C(C)(C)CCC[C@]2(C)[C@H]1/C=C/C1=CCOC1=O`: the GI50 in experiment [1] is 21.7 µM; in experiment [2], 8.2 µM; in experiment [3], 15.7 µM; in experiment [4] it was 83.6 µM. The CC50 in experiment [1] amounted to 39.6 µM. Moreover, the LC50 was 20.8 µM in experiment [2] and more than 100 µM in experiment [4]. This compound also gave an LC50 (concentration killing 50% of cells) in experiment [3] of 19.8 µM.

Source of the values: ChEMBL document CHEMBL1287811, “Two new cytotoxic labdane diterpenes from the rhizomes of Hedychium coronarium” (2010).
